# Experimental data from patent US20110039762A1, “TARGETED ANTIMICROBIAL MOIETIES” (C3 JIAN, INC., priority 2009, published 2011).
# pIC50: −log10 of the molar value. Peptide text beside a SMILES is read from it.
# How the values were obtained:
# [1] = tested on: S. mutans; format: cell-based, Streptococcus mutans
# [2] = tested on: S. mutans; assay: Post-antibiotic effect assay (growth retardation after 10 min exposure); format: cell-based, Streptococcus mutans; conditions: S. mutans monoculture, peptide 10 min, then fresh medium
# Description: (§1) The activity and selectivity of MH-STAMPs after a 10 min incubation was determined by growth retardation experiments against targeted and untargeted bacteria in monocultures, as described previously (Id.). Cells from overnight cultures were diluted to ˜5×10^6 cfu/mL in MH (or TH with 1% sucrose for S. mutans), normalized by OD600 0.05-0.1 and seeded to 96-well plates. Cultures were then grown under the appropriate conditions for 2 h (3 h for S. mutans) prior to the addition of peptides for 10 min. Plates were then centrifuged at 3000×g for 5 min, the supernatants discarded, fresh medium returned (MH or TH without sucrose for S. mutans), and incubation resumed. Bacterial growth after treatment was then monitored over time by OD600.
# [3] = tested on: S. epidermidis; format: cell-based, Staphylococcus epidermidis
# Method in brief: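 Organisms were diluted to ˜1×10^5 cfu/mL in Mueller-Hinton broth and dispensed into plates. Peptides were added as 2-fold serial dilutions. Plates were then held at 37° C. for 18-24 h.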
# [4] = tested on: P. aeruginosa; assay: Post-antibiotic effect assay (growth retardation after 10 min exposure); format: cell-based, Pseudomonas aeruginosa; conditions: P. aeruginosa monoculture, peptide 10 min, then fresh medium
# Description: as §1
# [5] = tested on: Mixed planktonic populations of P. aeruginosa, E. coli, S. epidermidis, and S. mutans; assay: Microbial population shift assay; format: cell-based; conditions: 10 μM peptide, 24 h
# Description: Peptide (10 μM) or mock-treatment (1× PBS) was then added and samples were incubated at 37° C. for 24 h under anaerobic conditions (80% N2, 15% CO2, 5% H2). […] Plates were then incubated 37° C. under aerobic conditions (TH plates were incubated anaerobically) and colonies counted after 24 h to determine survivors. […] Gram stains and direct microscopic observation (from select isolated colonies) were undertaken to confirm species identity (data not shown). The detection limit of the assay was 200 cfu/mL.
# [6] = tested on: panel of bacteria; assay: General antimicrobial activity by MIC against a panel of bacteria; format: cell-based; conditions: panel of bacteria (Table 19)
# Description: (§2) Briefly, ˜1×10^5 cfu/mL bacteria were diluted in TH (S. mutans), or Mueller-Hinton (MH) broth (all other organisms) and distributed to 96-well plates. Serially-diluted (2-fold) peptides were then added and the plates incubated at 37° C. for 18-24 h. […] All experiments were conducted 10 times.
# [7] = tested on: P. aeruginosa; format: cell-based, Pseudomonas aeruginosa
# Description: (§3) Typically, the in vitro antimicrobial activity of antimicrobial agents is tested using standard NCCLS bacterial inhibition assays, or MIC tests (see, National Committee on Clinical Laboratory Standards “Performance Standards for Antimicrobial Susceptibility Testing,” NCCLS Document M100-S5 Vol. 14, No. 16, December 1994; “Methods for dilution antimicrobial susceptibility test for bacteria that grow aerobically-Third Edition,” Approved Standard M7-A3, National Committee for Clinical Standards, Villanova, Pa.).
# as §2
# [8] = tested on: S. aureus; assay: Post-antibiotic effect assay (growth retardation after 10 min exposure); format: cell-based, Staphylococcus aureus; conditions: S. aureus monoculture, peptide 10 min, then fresh medium
# Description: as §1
# [9] = tested on: E. coli; assay: as above; format: cell-based, Escherichia coli; conditions: E. coli monoculture, peptide 10 min, then fresh medium
# Description: as §1
# [10] = tested on: S. epidermidis; assay: as above; format: cell-based, Staphylococcus epidermidis; conditions: S. epidermidis monoculture, peptide 10 min, then fresh medium
# Description: as §1
# [11] = tested on: E. coli; format: cell-based, Escherichia coli
# Description: as §3, §2
# [12] = tested on: Klebsiella pneumoniae KAY 2026; format: cell-based
# Description: (§4) Aerobic Gram-negative organisms were grown in Lauri-Bertaini (LB) broth and Gram-positive bacteria in Brain-heart infusion (BHI) broth. Streptococcus mutans JM11 (spectinomycin resistant, UA140 background) was grown in Todd-Hewitt (TH) broth under anaerobic conditions (80% N2, 15% CO2, 5% H2) at 37° C. Merritt et al. (2005) J Microbiol Meth., 61: 161-170. All bacteria were grown overnight to an OD600 of 0.8-1.0 prior to appropriate dilution and antimicrobial testing.
# as §2
# [13] = tested on: Staphylococcus aureus Newmann; format: cell-based
# Description: as §4, §2
# [14] = tested on: BHK-21 (ATCC CRL-10) fibroblasts; assay: Cytotoxicity, Promega CellTiterGlo assay; format: cell-based, hamster
# Description: Streptococcus oralis ATCC 10557, Streptococcus gordonii (Challis), Streptococcus sanguinis (NY101), Streptococcus mitis ATCC 903, Streptococcus salivarius ATCC 13419 and S. mutans wild-type UA140 and JM11 (spectinomycin-resistant) strains were grown in Todd-Hewitt (TH) broth 37° C. in an anaerobic atmosphere of 80% N2, 10% CO2, and 10% H2. BHK-21 (ATCC CRL-10) fibroblasts were propagated in DMEM with 10% FBS, 1 mM sodium pyruvate, 100 units/mL penicillin G, and 100 μg/mL streptomycin at 37° C. with 5% CO2. Cells were detached with 0.25% trypsin and subcultured as recommended by the supplier.
# The effect of RB and C16-RB on […] fibroblasts was ascertained by utilizing the Promega CellTiterGlo assay, as described by the manufacturer. Briefly, fibroblasts were grown to confluence, detached, and seeded to ˜5,000 cells per well in a 96-well opaque walled, clear bottom 96-well plate (Nunc International). For long-term dark toxicity, cells were allowed to attach to for 18 h before the culture medium was replaced with medium plus serially-diluted RB or C16-RB (200 μM to 390 nM) or medium alone. After 18-24 h, equal volume Cell Titer Glo reagent was added to each well and mixed. Luciferace activity was then quantified to measure cell viability (Varian Fluorometer in Biolumenescence mode). To measure cytotoxicity after RB or C16-RB light exposure, cells were seeded at ˜10,000 cells per well and allowed to attach for 4 h. Cell growth medium was then replaced with RB or C16-RB containing medium, prior to exposure (a single well at a time) with blue light (400 mW/cm^2) suspended ˜3 cm from the well bottom. After exposure, cultures were disrupted with Cell Titer Glo and luciferase activity quantitated as above.
# [15] = tested on: S. mutans UA140 biofilms; assay: Photodynamic antimicrobial assay against single-species biofilms; format: cell-based, Streptococcus mutans; conditions: 5 μM, dark controls
# Description: To evaluate C16-RB against monoculture biofilms, S. mutans UA140 was grown overnight in TH prior to inoculation for biofilm formation. For biofilms, 1:5000 dilution of overnight culture was made into TH with 1% sucrose in 2 mL centrifuge tubes (200 μL volume) and grown 24 h under anaerobic conditions. After incubation, biofilms were treated for 5 min with 5 or 25 μM C16-RB or 5 μM RB in 1× PBS, or PBS alone, followed by removal of supernatant and exposure to 5 min blue light (emission 400-550 nm, power 400 mW/cm^2) from an Astralis 7 (Ivoclar Vivodent, Austria) handheld LED commonly used as a dental curing light. The light source was suspended 4 cm from the tube bottom (even with the mouth of the tube). A duplicate set of samples were left covered to serve as dark controls. After treatment, biofilms were mechanically disrupted and plated to determine cfu/mL.
# [16] = tested on: mixed biofilms of S. mutans JM11 plus S. oralis, S. gordonii, S. mitis, S. sanguinis, and S. salivarius; assay: Photodynamic antimicrobial assay against multispecies biofilms; format: cell-based; conditions: blue light
# Description: To gauge C16-RB selectivity for S. mutans, similar assays were conducted against multispecies biofilms. Mixed biofilms were seeded by diluting (1:5000) a mixture of equal parts S. oralis, S. gordonii, S. mitis, S. sanguinis, S. salivarius, and S. mutans JM11 (made from overnight cultures) into TH with 1% sucrose, 1% glucose, and 1% mannose. Biofilms were incubated and treated as described above with the addition of vitamin C or potassium gluconate. After the addition of agent and 5 min incubation, biofilms were washed 1× with 1× PBS prior to light exposure. After PDT and biofilm disruption, survivors were plated on TH, and TH supplemented with 800 μg/mL spectinomycin, which allowed for quantitation of surviving total oral streptococci and surviving S. mutans, respectively.
smiles,measurement,setting,value
CC[C@H](C)[C@H](NC(=O)[C@@H](N)Cc1ccccc1)C(=O)N[C@@H](CCCNC(=N)N)C(=O)N[C@@H](CCCCN)C(=O)N[C@@H](Cc1ccccc1)C(=O)N[C@@H](CC(C)C)C(=O)N[C@@H](CCCCN)C(=O)N[C@@H](CCCCN)C(=O)N[C@@H](Cc1c[nH]c2ccccc12)C(=O)N[C@@H](CC(C)C)C(=O)N[C@@H](CC(C)C)C(N)=O [BD2.20] (H-FIRKFLKKWLL-NH2; N-terminus assumed),MIC,[1],2.86 ± 0.60 µM
same,bacterial growth (OD600) after treatment,[2],robust antimicrobial activity
same,MIC,[3],5.11 ± 1.58 µM
same,bacterial growth (OD600) after treatment,[4],robust antimicrobial activity
same,recoverable (surviving) cfu/mL,[5]; E. coli in mixed culture,significant loss of recoverable cfu/mL
same,recoverable (surviving) cfu/mL,[5]; P. aeruginosa in mixed culture,significant loss of recoverable cfu/mL
same,recoverable (surviving) cfu/mL,[5]; S. epidermidis in mixed culture,significant loss of recoverable cfu/mL
same,recoverable (surviving) cfu/mL,[5]; S. mutans in mixed culture,significant loss of recoverable cfu/mL
same,general antimicrobial activity by MIC,[6],robust MICs
same,MIC,[7],14.4 ± 4.40 µM
same,bacterial growth (OD600) after treatment,[8],inhibited
same,bacterial growth (OD600) after treatment,[9],inhibited
same,bacterial growth (OD600) after treatment,[10],inhibited
same,MIC,[11],5.47 ± 1.41 µM
same,MIC,[12],2.98 ± 0.47 µM
same,MIC,[13],5.625 ± 1.29 µM
"O=C1OC2(c3cc(I)c(O)c(I)c3Oc3c2cc(I)c(O)c3I)c2c(Cl)c(Cl)c(Cl)c(Cl)c21 [RB, rose bengal]",light-dependent (photo-associated) toxicity,"[14]; BHK cells, blue light",light-dependent toxicity was observed
same,pIC50,"[14]; BHK, 5 min dark",< 4.00
same,decrease in cfu/mL,[15],appreciable decreases in cfu/mL were not observed
same,"photodynamic antimicrobial activity, selectivity",[16]; mixed biofilm,strong indiscriminant photodynamic antimicrobial effects
same,ratio of surviving S. mutans:non-cariogenic streptococci cfu,[16]; plus potassium gluconate,~1
